{"source": "paper PMC5068747", "about": "“Using C. elegans Forward and Reverse Genetics to Identify New Compounds with Anthelmintic Activity” (PLoS Neglected Tropical Diseases, 2016)", "key": {"[1]": {"system": "Meloidogyne hapla J2", "test": "Immobilization of infective second-stage juveniles (J2) of Meloidogyne hapla", "format": "in vivo", "description": "A laboratory population of the plant-parasitic northern root-knot nematode, Meloidogyne hapla, was initiated by inoculating a tomato seedling growing in a 500 ml pot of 50:50 pasteurized sandy soil:peat with ~100 infective second-stage juveniles (J2) extracted from infested soil from a vineyard in the Okanagan Valley. The population was thereafter reared on tomato under greenhouse conditions. Prior to experimentation, galled roots were removed from heavily infested tomato plants, washed over a sieve with tap water, and then placed on Baermann funnels. J2 hatchings over the first three days were collected and suspended in tap water at a concentration of 100 J2/ml. Replicate 24-well cell culture plates were seeded with 0.2 ml of J2 suspension. Dilutions of CID 2747322 in distilled water were then added to the wells to result in four replicate wells of each of six concentrations in each plate. Concentrations tested spanned 0 to 320 μM and 0 to 160 μM in the two separate runs of the experiment. Nematodes were observed using an inverted microscope at 40X. On each observation date, a transect through each well was observed and J2 within the transect were scored as mobile or immobile. J2 that had taken on a straight posture were scored as immobile. Recently hatched J2 of M. hapla normally move continuously but slowly and always have a curved posture.\nSupplementary file pntd.0005058.s005.pdf: S5 Fig Dosage curve for effects on Meloidogyne hapla of CID 2747322. The percentage of immobilization of infective juveniles of Meloidogyne hapla was measure after ten days of exposure to the compound. Data are from two separate trials testing 0–320 and 0–160 μM concentration ranges, respectively, with each point representing the mean of twelve test wells. (PDF) Click here for additional data file."}, "[2]": {"system": "Human embryonic kidney (HEK293) cells", "test": "HEK293 viability, MTT colorimetric assay", "format": "cell-based", "details": "Homo sapiens, read-out: Mammalian IC50", "description": "Potential anthelmintic compounds identified from primary screening were further tested against mammalian cells and yeast to determine whether they had deleterious effects in those organisms. Human embryonic kidney (HEK293) cells were grown in Dulbecco’s Modified Eagle’s Medium (DMEM; Sigma) containing 5% fetal bovine serum (FBS; Sigma) in 96-well plates tissue culture plates. Compounds were added 24h post-plating at 10, 30, 100, or 300 μM final concentrations. Dimethyl sulfoxide (DMSO) was used as a negative control at 0.1%. Cells were treated for 24 or 48 hours, after which time viability was assessed using a 3-(4,5-dimethylthiazol-2-yl)-2,5-diphenyltetrazolium bromide (MTT) colorimetric assay. Percent viability was determined by comparing treatment values to DMSO control values."}, "[3]": {"system": "C. elegans VC2010 (wild type)", "test": "WormScan screen of C. elegans growth, fecundity, motility and mortality", "format": "in vivo, Caenorhabditis elegans", "details": "Caenorhabditis elegans, 120 h, 5 days exposure", "description": "(§1) All compound libraries were stored in 96-well plates, with 80 drugs per plate (columns 1 and 12 left empty). A BioGrid BG600 pinning robot (Digilab / BioRobotics) was used for compound transfer. The robot uses a 96-pin tool (0.7 mm dia.) to transfer a nominal volume of 340 nL of compound. For retesting, compounds were hand pinned from the original library plates to assay plates using a single 0.7 mm dia. pin. The assay plates were 96-well clear flat-bottom microplates containing 2% χ1666 E.coli bacteria in 0.5X Liquid Nematode Growth Media (LNGM) plus cholesterol (Bacteria were mass-grown in rich media, and harvested by centrifugation to produce a thick paste of bacterial cells that was kept frozen at -20°C. Cells were resuspended at 2% W/V in 0.5X LNGM to produce liquid worm food). Using a COPAS Biosort (Union Biometrica), two L4 to young adult stage VC2010 worms were added to each well of the plate in a final volume of 45 μL. After five days of exposure to the compounds, the plates were scanned and the data analyzed. A five day time period was chosen to be able to observe effects over all stages of the life cycle and through at least one round of replication. The initial proof-of-principle primary screen was performed manually using a dissecting microscope. Phenotypes scored included decreased motility, reduced brood size, and/or death as described previously. For high throughput screening of the Chembridge and Maybridge compound libraries we used the program WormScan, which was adapted for screening 96-well flat-bottom LNGM plates. Using WormScan it was possible to screen four 96-well plates at a time. Plates were scanned twice, at a resolution of 1200 dots per inch, 16-bit grayscale, producing a jpeg image. The light intensity produced by the scanner was sufficient to cause negative phototaxis equivalent to a physical stimulus for mortality determination. The time required to scan four 96-well plates using an Epson Perfection V700 Photo Scanner was less than ten minutes. The time to screen a single plate was less than 1.2 minutes, with less than ten seconds between scans.\n(§2) WormScan was used to screen for the same phenotypes as in the manual screen (reduced brood size, reduced behavior/motility response and increased mortality). Two sequential scans for each 96-well plate were aligned to a reference region of interest (ROI). Image analysis was based on a difference image score calculated for each ROI. The difference image score (WormScan score) was normalized using a “percent of control” method to derive a normalized WormScan score. […] Wild-type growth in 1% DMSO (Fig 1A) results in a normalized WormScan score of 100. Exposure to 50 nM ivermectin gives a score of 0 (Fig 1C), and complete absence of worms gives a score of 0 (Fig 1D). For the primary screen the WormScan score was calculated using custom macro scripts written for Fiji. For secondary screening and any subsequent studies the WormScan score was calculated using a standalone Java program (See supplemental). Probit regression of mortality was calculated using Mathematica 8.0."}, "[4]": {"system": "C. elegans CB3474 (ben-1(e1880), benomyl resistant)", "test": "IC50 on benzimidazole resistant C. elegans strain", "format": "in vivo, Caenorhabditis elegans", "details": "Caenorhabditis elegans, 120 h; 5 days exposure, 2 L4 per well, three biological replicates"}, "[5]": {"system": "C. elegans VC3635 (pink-1 gk3615, D19 resistant)", "test": "IC50 on CID 2747322 resistant C. elegans strain VC3635", "format": "in vivo, Caenorhabditis elegans", "details": "Caenorhabditis elegans, 120 h; 5 days exposure, 2 L4 per well, three biological replicates", "description": "as §1, §2\nA standard ethyl methanesulfonate (EMS) mutagenesis protocol was carried out using VC2010 in order to generate mutants resistant to CID 2747322 exposure. First larval stage (L1) F2 progeny of mutagenized P0s were exposed to CID 2747322 at 200 μM in liquid worm food in 24-well tissue culture plates for five days at room temperature, and two independently isolated resistant lines (VC3614 and VC3615) were identified. […]"}}, "note": "Where “and” joins values, the source holds several entries; their conditions need not be identical. Equal entries are not always repeated. Where two headings read alike, the source gives them in different places."}
{"smiles": "COc1ccc(OCCNC(=O)c2ccccc2C(F)(F)F)cc1", "note": "[CID 2747322, N-[2-(4-methoxyphenoxy)ethyl]-2-(trifluoromethyl)benzamide]", "values": [{"measurement": "immobilization of M. hapla J2", "setting": "[1]; 160 and 320 μM, 24 hours after exposure initiation, increased through day 10", "value": "Immobilization was observed"}, {"measurement": "IC50", "setting": "[1]; Meloidogyne hapla, 240 h, 10 day exposure", "value": "129 µM and 44 µg/mL"}, {"measurement": "survival of M. hapla", "setting": "[1]; extended exposure", "value": "die after extended exposure"}, {"measurement": "IC50", "setting": "[2]", "value": 171, "unit": "µM"}, {"measurement": "IC50", "setting": "[3]; 2 L4 per well, three biological replicates, read-out: IC50, strain VC2010 (wild type)", "value": 18, "unit": "µM"}, {"measurement": "IC50", "setting": "[3]; C. elegans, read-out: Nematode IC50", "value": 18, "unit": "µM"}, {"measurement": "IC50", "setting": "[4]", "value": 4, "unit": "µM"}, {"measurement": "IC50", "setting": "[5]", "value": "> 500", "unit": "µM"}]}
